The structures appear in SMILES notation.

The target of the first assay is T1, Type-1 angiotensin II receptor (Oryctolagus cuniculus) (UniProt P34976).
T1 sequence (whole entry): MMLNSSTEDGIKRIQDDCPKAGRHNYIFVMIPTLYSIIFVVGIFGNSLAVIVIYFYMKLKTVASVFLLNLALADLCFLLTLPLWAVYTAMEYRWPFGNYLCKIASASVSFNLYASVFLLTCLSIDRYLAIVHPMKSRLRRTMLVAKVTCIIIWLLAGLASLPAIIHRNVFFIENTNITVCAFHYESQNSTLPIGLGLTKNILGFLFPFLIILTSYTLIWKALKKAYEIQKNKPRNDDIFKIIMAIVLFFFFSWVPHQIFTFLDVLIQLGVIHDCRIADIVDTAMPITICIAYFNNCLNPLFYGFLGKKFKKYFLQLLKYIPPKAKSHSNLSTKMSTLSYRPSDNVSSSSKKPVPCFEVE
The assay can be described thus: In vitro antagonism of Angiotensin II receptor, type 1 in isolated rabbit thoracic aorta. The assay is classed as functional, tissue-based.
Conditions: not given
Consider `CCCCCC[C@H](C(=O)N1C[C@H](Oc2ccc(CC(=O)O)cc2)C[C@@H]1C(=O)O)n1cnc(NC(=O)c2ccccc2S(=O)(=O)O)c1`, for which the Kb worked out at 191 nM.
Same read-out and setting: the value for `CCCCCC[C@@H](C(=O)N1C[C@H](Oc2ccc(CC(=O)O)cc2)C[C@@H]1C(=O)O)n1cnc(NC(=O)c2ccccc2S(=O)(=O)O)c1` was 489 nM.
`CCCCCC[C@H](C(=O)N1C[C@@H](Oc2ccc(CC(=O)O)cc2)C[C@@H]1C(=O)O)n1cnc(NC(=O)c2ccccc2S(=O)(=O)O)c1`: the Kb amounted to 156 nM.
Consider `CCCCCC[C@@H](C(=O)N1C[C@H](Oc2ccc(CC(=O)O)cc2)C[C@H]1C(=O)O)n1cnc(NC(=O)c2ccccc2S(=O)(=O)O)c1`, for which the Kb came out at 555 nM.
The same measure, in the same setting: the result for `CCCCCC[C@@H](C(=O)N1C[C@@H](Oc2ccc(CC(=O)O)cc2)C[C@@H]1C(=O)O)n1cnc(NC(=O)c2ccccc2S(=O)(=O)O)c1` reads 761 nM; that for `CCCCCC[C@H](C(=O)N1C[C@H](Oc2ccc(CC(=O)O)cc2)C[C@H]1C(=O)O)n1cnc(NC(=O)c2ccccc2S(=O)(=O)O)c1`, 503 nM; that for `CCCCCC[C@H](C(=O)N1C[C@@H](Oc2ccc(CC(=O)O)cc2)C[C@H]1C(=O)O)n1cnc(NC(=O)c2ccccc2S(=O)(=O)O)c1`, 0.12 nM.
On the same count and under the same terms, the result for `CCCCCC[C@@H](C(=O)N1C[C@@H](Oc2ccc(CC(=O)O)cc2)C[C@H]1C(=O)O)n1cnc(NC(=O)c2ccccc2S(=O)(=O)O)c1` reads 4.5 nM.

The species named for the next assay is Oryctolagus cuniculus. The assay can be described thus: pA2 value determined by their ability to block AngII induced contractile responses in rabbit aorta strips. Type of assay: functional. The following applies: read-out: pA2 (converted).
On to `CCCCCCC(C(=O)O)n1cnc(NC(=O)c2ccccc2C2N=NN=N2)c1` (stereo unspecified), for which the Kb was 100 nM.
`CCCCCCC(C(=O)O)n1cnc(NC(=O)c2ccccc2C(=O)O)c1` (stereo unspecified): the Kb was 100 nM.
The same measure, in the same setting: the result for `CCCCCCC(C(=O)O)n1cnc(NC(=O)c2cccc(O)c2C(=O)O)c1` (stereo unspecified) reads 100 nM.

For the origin of these results see ChEMBL document CHEMBL1127875 (Bioorg Med Chem Lett, 1994).
